In a melting point compilation (Tetko et al.; mined from patent text by program, amines drawn as free bases though some values may be those of a salt) one finds melting point data, which are given here for 63 compounds.

Compound `COc1c(C2CCN(CCCCOc3ccc(-c4ccc(C#N)cc4)cc3)CC2)ccc2ccccc12` yielded a melting point of 142 °C.
As for `CC12CCC(O)CC1CCC1C2CCC2(CN3CCOCC3)C(O)C(N3CCCC3)CC12` (stereo not drawn), the melting point amounted to 218 °C.
In the case of `COc1cc(-c2ccccc2C)cc2oc(=O)c(C)c(C)c12` it was 145 °C; in that of `COC(=O)c1ccc(Cc2cc3cc(C(F)(F)F)ccc3[nH]2)cc1`, 127 °C; in that of `COC1CCN2C(=O)c3cccc(NC(=O)Nc4cnc(C)cn4)c3C2C1` (stereo not drawn), 140 to 142 °C.
Take `CC(=O)Oc1c(C)c(CCC2CC(O)CC(=O)O2)c2c(c1C)CC(C)(C)O2` (stereo not drawn): the melting point lay within 126 to 128 °C.
For `CCCn1nnc(NC(=O)C(c2ccccc2)c2ccccc2)n1` the value was 124 to 125 °C.
In the case of `CON=Cc1ncn2c1CN(C)C(=O)c1c(Cl)cccc1-2` it was 173 to 174 °C; in that of `COC(=O)N=C(NC(=O)OC)Nc1ccc(S(=O)CC(C)C)cc1NC(=O)CS(C)=O` (stereo not drawn), 149 to 150 °C; in that of `NS(=O)(=O)CCCNc1nc(Cl)ncc1Cl`, 186 to 187 °C.
In the case of `O=C(CC1CCCCC1)Nc1ccccc1` it was 126 to 128 °C; in that of `C=CCc1ccc(OCC2CCCO2)c2c(=O)cc(C(N)=O)oc12` (stereo not drawn), 212 to 214 °C; in that of `CCOC(=O)c1c(N2CCN(C(=O)c3cccs3)CC2)c2cnccc2n(Cc2cccc(F)c2)c1=O`, 135 °C.
In turn, `COC(=O)c1ccc2c(c1)S(=O)(=O)c1ccccc1N=C2Cl` yielded a melting point of 254 to 256 °C.
With `CN(C)CCn1c(=O)c2c3oc4ccccc4oc3c3[nH]c4ccc(O)cc4c3c2c1=O`, the melting point was more than 360 °C.
For `O=c1[nH]c2cc(Cl)ccc2c(O)c1Sc1cccc(Br)c1` the value was 265 to 268 °C; for `CC(=O)OC1CSC(Oc2cc(-c3ccncc3)cnc2F)C(OC(C)=O)C1OC(C)=O` (stereo not drawn), 143 to 144 °C.
For `COc1ccc(S(=O)(=O)Oc2ccc3[nH]cc(C4CCN(C)CC4)c3c2)cc1` the value was 186 to 187 °C.
For `COc1ccc(C2(C#Cc3ccc([N+](=O)[O-])cc3)CCC3(CC2)OCCO3)cc1OC1CCCC1` the value was 58 to 59 °C; for `COc1ccc(C2(C#Cc3cc(C(=O)O)cs3)CCC(=O)CC2)cc1OC1CCCC1`, 75 to 76 °C.
As to `CC(C)(C)Oc1ccc(I)cc1`, the melting point fell in the range of 40 to 41.5 °C.
For `CCc1c(Cl)ccc2c1C=C(C(=O)O)C(C(F)(F)F)O2` (stereo not drawn) the value was 172 °C; for `COc1cc(C(=O)NC2CN(C)N(C)C2)cc(OC)c1OC`, 163 to 166 °C; for `COc1ccc(C)cc1NC(=O)Nc1ccc2c(c1)CCN(C(=O)Nc1ccc(OCCO)cc1Cl)C2`, 110 to 113 °C.
For `CNC(=O)ON=C1SCS(=O)CS1` (stereo not drawn) the value was 175 to 177 °C; for `C=C1CSC(=C(C#N)n2ccnc2)S1`, 116 °C.
In the case of `Cn1c(C=O)nnc1NCCCOc1cccc(CN2CCCCC2)c1` it was 157 to 158 °C.
For the compound `CCn1c(C)nc2nc(-c3ccccc3)c(-c3ccccc3)nc21`, the melting point was 178 to 180 °C.
In the case of `CN1CCN(C(=O)c2cccn2Cc2ccccc2N)CC1` it was 139 to 141 °C; in that of `N#Cc1cccc(OS(N)(=O)=O)c1`, 101 to 104 °C.
For `Nc1cc(O)nc(SCc2c(F)cccc2F)n1` the value was 245 to 246 °C; for `CS(=O)(=O)c1ccc(-c2sc(-c3ccccc3)nc2-c2ccc(F)cc2)cc1`, 188 to 189 °C; for `CCCCCCCCCCCCCCCCC#CCC(CO)CO`, 55 °C.
In the case of `C=C1CN(c2ccccc2)C1=O` it was 57 to 58 °C; in that of `CC(=O)c1ccc(CBr)s1`, 58 to 59 °C.
`CNC(=O)Nc1ccc(OCCCN2CCN(c3ccccc3)CC2)c(OC)c1` returned a melting point of 167 to 169 °C.
For `Cc1nnc(-c2ccc3occ(-c4cnn(Cc5ccccc5)c4)c3c2)o1` the value was 151 to 152 °C.
In the case of `CC(C)c1cc(C(C)C)c(CC#N)c(C(C)C)c1C#N` it was 98 to 101 °C; in that of `Cc1nc2ccccn2c(=O)c1CCN1CCc2oc3ccccc3c2C1`, 186 °C.
In turn, `Cc1nc(-n2cnn(CCNc3ccc(F)cc3)c2=O)sc1C(=O)NCc1cccnc1` showed a melting point of 163 to 164 °C.
For `Cc1cccc2nnc(-c3ccccc3)cc12` the value was 101 °C; for `O=C(O)Cn1c(=O)n(Cc2ccc(Br)cc2F)c(=O)c2ccc(Br)cc21`, 217 °C; for `COc1ccc(C(=O)c2ccc(Cl)nc2)c(OCc2ccccc2)c1`, 93 to 94 °C.
As to `CCC(Cl)c1ccc(CCNS(=O)(=O)c2ccc(Cl)cc2)cc1` (stereo not drawn), the melting point is 90 to 91 °C.
In the case of `CCN1CCN(c2cc(-c3ccc(O)cc3)c3c(n2)CCCCCC3)CC1` it was 250 to 253 °C; in that of `CC(=O)Nc1nc2c(Oc3cc(-c4ccc(C(F)(F)F)cc4I)ncn3)cccc2s1`, 242 to 243 °C.
In turn, `Cc1ccc(S(=O)(=O)Oc2ccc(S(=O)(=O)c3c(-c4ccccc4)noc3C(C)C)cc2)cc1` displayed a melting point of 148 to 149 °C.
In the case of `CCOC(=O)CNC(=S)NC(=Nc1ccc([N+](=O)[O-])cc1)c1ccccc1` it was 189 to 190 °C.
In the case of `CC1CC(=O)NN=C1c1ccc2[nH]c(-c3ccnnc3)cc2c1` (stereo not drawn), the melting point was in the range of 293 to 295 °C.
In the case of `CC1=C(N)C(C)C2CC(C)(CC3=CCN(c4ccc(-n5ccnc5)cc4)CC3)OC2=C1C` (stereo not drawn) it was 161 to 163 °C; in that of `CCC(CC)CCc1nn(C)c2cc(C(=O)OC)ccc12`, 91 to 93 °C.
For `Cc1cc(C)nc(NC(=O)NS(=O)(=O)c2ccccc2C2(O)CCC2)n1` the value was 148 to 150 °C; for `CCNC(=O)N(O)CC#Cc1cccc(C2=N[C@H](c3ccccc3)CO2)c1`, 141 to 143 °C; for `Cc1nnc(-c2ccc(F)cc2)n2nc(OCc3ncnn3C)c(-c3ccsc3)c12`, 171 to 177 °C.
As for `CN(C)CCc1cccc(OCCCN2C(=O)c3ccccc3C2=O)c1`, the melting point was in the range of 59 to 60 °C.
For `NCC1C[N+]([O-])=C(c2ccccc2F)c2cc(Cl)ccc2N1` (stereo not drawn) the value was 144 to 148 °C.
For `c1ccc(-c2ccc(NCc3nccc(-c4ccc(-c5ccc(N(c6ccccc6)c6ccccc6)cc5)cc4)n3)cc2)cc1` the value was 224 to 225 °C.
For `COc1ccccc1C=CC(=O)C1=C(O)C(=C(C)Nc2ccccc2N)C(=O)OC1=O`, the melting point was 148 to 150 °C.
For `O=[N+]([O-])c1cc(Cl)c(Oc2cc(Cl)c(Br)cc2Cl)cc1Oc1ccccc1` the value was 85 °C; for `Cc1ncc2cc(-c3c(Cl)cccc3Cl)c(N)nc2n1`, 287 to 289 °C; for `O=C(O)C1CC(=C2CCN(c3ccccc3)C2=O)c2ccc(Cl)cc2N1` (stereo not drawn), more than 200 °C.
For `CCCCCCCCCCCCCCCCCCNC(=O)NCCSc1ccc(O)cc1` the value was 121 °C; for `CN1CC=C(c2c[nH]c(-c3ccc(F)cc3)c2-c2ccncc2)CC1Cc1ccccc1` (stereo not drawn), 198 to 199 °C.
